pEC50: −log10 of the molar value. Values belong to the compound of their own block, whether it stands above or below them.
Columns and labels:
Nurr1:RXRα heterodimer = Nurr1:RXRα heterodimer (Homo sapiens (Human), UniProt P19793); test: Nurr1:RXRα-dependent luciferase reporter (DR5-TK-Luc) transactivation assay; format: cell-based; conditions: SHSY-5Y cells co-transfected with human Nurr1, RXRα and DR5-TK-Luc
[1] = test system: SHSY-5Y dopaminergic cells; test: MPP+ induced cell death, MTT assay; format: cell-based, human; conditions: 12.5 μM, varying concentrations of MPP+
Description: MPP+, eradicates approximately 75% of the cells in 24 hours. […] Naive Neuro2A cells (FIG. 2A) or SH-SY5Y neuroblastoma cells FIG. 2B,C) were cultured in RPMI 1640, 10% fetal bovine serum at 37° C. Cells were pretreated with compound 3 for 12-24 h. Subsequent change of culture medium with addition of 0, 1, 2 and 4 mM MPP+ induced cell death. MTT assays determined the relative number of surviving cells FIG. 2D).
Such assays were performed, for instance, by adding compound 46 (12.5 μM) to human origin SHSY-5Y dopaminergic cells in which death was induced by the mitochondria complex I inhibitor MPP+ (1-methyl-4-phenylpyridinium), the active metabolite of MPTP (1-methyl-4-phenyl-1,2,3,6-tetrahydropyridine). […] Most of the MPP+-treated cells receiving vehicle died, while the few surviving cells remained attached to the plate but were rounded and had lost all projections. These morphological changes indicated impaired neuronal function. On the contrary, cells treated with compound 46 appeared healthy, flattened, well-attached, and their projections remained intact.
We examined the neuroprotective capability of Nurr1:RXRα heterodimer activation in SHSY-5Y cells where death was induced by either the oxidative stress related H2O2 or the mitochondria complex I inhibitor MPP+ (1-methyl-4-phenylpyridinium) (FIG. 72B). […] The protection conferred by compound 3 was Nurr1-dependent, since it was abrogated by knocking-down endogenous Nurr1 mRNA (FIGS. 1E and 72D). The neuroprotective effects of compound 3 extend to damage induced by the PD-associated mutation G2019S in the Leucine-Rich Repeat Kinase 2 (LRRK2) gene, the most common genetic defect associated with clinical PD (Tofaris et al. J. Neurosci. 26:3942-3950, 2006). Rat cortical neurons, co-transfected with CMV-GFP for identification, and CMVLRRK2-G2019S cDNAs show increased apoptosis as assessed by DAPI staining, compared to control neurons co-transfected with a LRRK2 wt cDNA.

[2] = Plasma and brain concentrations by LC-MS/MS after IP administration to mice; format: in vivo, mouse
Description: FIGS. 68A and 68B show the pharmacokinetic profile of XCT in blood plasma and in the brain of mice injected with this compound. […] Serial tail bleeds (n=3) were used for detection of the compound in plasma 1 and 2 hours after IP administration. Similarly, mice (n=3) were sacrificed 1 and 2 hours after IP administration and brains were dissected. The concentrations of the parent compound in plasma and brain were determined by LC-MS/MS.
The concentrations of the parent compound in plasma and brain were determined by LC/MSMS.
XCT0135908 was administered to mice to test its bioactivity.

c-jun = test: Midbrain c-jun expression by qPCR after administration to mice; format: in vivo, mouse
Description: FIGS. 69A-69C show the brain penetration, half-life, and c-jun transcriptional activation of compound 3. […] Mice (n=5) were sacrificed 1, 2, 4, 8 and 24 hours after IP administration and brains were dissected 1, 2, 4, 8 and 24 hours post administration. The concentrations of the parent compound in plasma and brain were determined by LC/MSMS.
(§1) To assess the neuroprotective effect of compound 3, this compound was dosed to wt mice intraperitoneally (IP) at 10 mg/kg injections of compound 3 in Ethanol:PG:Saline 10:30:60. After 2 h and 4 h animals (n=3 per time point) were sacrificed, and their brains obtained. After extraction c-jun and tyrosine hydroxylase (TH) levels in brain extract were determined by qPCR (FIG. 1E, 1F).

Nur77:RXRα heterodimers = Nur77:RXRα heterodimers (Homo sapiens (Human), UniProt P19793); test: Relative activation of Nurr1 and Nur77 in a luciferase reporter assay; format: cell-based; conditions: FIG. 67
[3] = test system: tyrosine hydroxylase (TH); test: Midbrain tyrosine hydroxylase expression by qPCR after administration to mice; format: in vivo, mouse; conditions: mice, IP or intracerebroventricular 1 and 10 mg/kg, different time points
Description: as §1
Given the role of Nurr1:RXRα activation in the transcriptional regulation of DA biosynthesis genes, we tested whether compound 3 could increase DA levels in wt and ASYN transgenic mice (Tofaris et al. J. Neurosci. 26:3942-3950, 2006), which display reduced striatal DA levels after reaching adulthood. […] Aiming to model PD based on human genetic data, we also tested whether compound 3 could increase DA levels in ASYN transgenic mice. A single IP injection of compound 3 (10 mg/kg) was able increase striatal DA (t test p=0.01069) and DA metabolite levels in ASYN transgenics as well (FIG. 75C) in comparison to mice receiving vehicle.

Nurr1:RXRα heterodimer, sequence (P19793 whole entry): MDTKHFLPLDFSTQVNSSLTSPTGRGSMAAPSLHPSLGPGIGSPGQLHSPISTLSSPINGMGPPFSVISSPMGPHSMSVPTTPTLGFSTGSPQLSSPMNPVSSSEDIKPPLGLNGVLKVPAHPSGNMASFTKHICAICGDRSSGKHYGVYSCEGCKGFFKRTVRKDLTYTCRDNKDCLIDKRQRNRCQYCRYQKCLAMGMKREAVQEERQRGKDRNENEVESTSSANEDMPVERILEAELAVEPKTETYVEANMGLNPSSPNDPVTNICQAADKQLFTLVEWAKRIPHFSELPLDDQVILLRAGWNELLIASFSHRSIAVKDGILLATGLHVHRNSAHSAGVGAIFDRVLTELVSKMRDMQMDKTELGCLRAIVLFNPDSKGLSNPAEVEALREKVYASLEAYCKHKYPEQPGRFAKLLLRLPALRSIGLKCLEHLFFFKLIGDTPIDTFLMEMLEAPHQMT
Nurr1:RXRα heterodimer, sequence (P43354 whole entry partner): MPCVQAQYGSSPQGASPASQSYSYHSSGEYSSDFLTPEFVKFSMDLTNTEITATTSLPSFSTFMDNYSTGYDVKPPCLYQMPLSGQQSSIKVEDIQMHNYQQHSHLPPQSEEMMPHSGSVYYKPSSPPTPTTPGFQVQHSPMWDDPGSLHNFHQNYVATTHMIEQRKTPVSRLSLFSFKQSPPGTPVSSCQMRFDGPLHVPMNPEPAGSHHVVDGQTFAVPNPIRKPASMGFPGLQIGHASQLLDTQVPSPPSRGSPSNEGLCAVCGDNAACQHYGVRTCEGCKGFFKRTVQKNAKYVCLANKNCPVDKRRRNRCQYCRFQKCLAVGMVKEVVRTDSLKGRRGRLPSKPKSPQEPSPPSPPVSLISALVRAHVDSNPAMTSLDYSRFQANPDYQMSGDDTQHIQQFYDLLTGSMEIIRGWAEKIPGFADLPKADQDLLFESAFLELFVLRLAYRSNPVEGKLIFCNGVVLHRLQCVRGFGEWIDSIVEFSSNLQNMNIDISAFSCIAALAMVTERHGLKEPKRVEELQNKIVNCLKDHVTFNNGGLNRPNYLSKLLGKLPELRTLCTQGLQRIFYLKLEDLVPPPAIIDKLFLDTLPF
Nur77:RXRα heterodimers, sequence (P19793 whole entry, looked up): as the sequence (P19793 whole entry) above
Nur77:RXRα heterodimers, sequence (P22736 whole entry partner, looked up): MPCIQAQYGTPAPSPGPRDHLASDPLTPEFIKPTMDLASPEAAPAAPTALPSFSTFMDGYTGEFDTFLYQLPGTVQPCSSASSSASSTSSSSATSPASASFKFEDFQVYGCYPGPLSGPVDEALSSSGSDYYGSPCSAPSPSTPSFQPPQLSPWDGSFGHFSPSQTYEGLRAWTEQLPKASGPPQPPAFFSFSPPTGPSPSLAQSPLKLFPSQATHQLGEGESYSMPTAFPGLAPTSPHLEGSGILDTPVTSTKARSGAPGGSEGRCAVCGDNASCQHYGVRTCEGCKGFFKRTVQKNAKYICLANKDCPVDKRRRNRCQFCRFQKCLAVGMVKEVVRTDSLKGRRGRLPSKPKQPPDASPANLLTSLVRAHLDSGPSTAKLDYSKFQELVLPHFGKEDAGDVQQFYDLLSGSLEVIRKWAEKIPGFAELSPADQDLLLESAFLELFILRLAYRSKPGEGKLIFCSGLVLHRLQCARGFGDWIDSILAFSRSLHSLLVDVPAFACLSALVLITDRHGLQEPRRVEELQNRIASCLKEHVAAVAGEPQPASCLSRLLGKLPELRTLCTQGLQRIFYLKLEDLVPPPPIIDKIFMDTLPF

pEC50 (Nurr1:RXRα heterodimer): 5.70
Structure (SMILES): C=CCc1c(C)nc(-c2ccccc2)nc1Nc1ccc(C(=O)OCOC(=O)C(C)(C)C)cc1 [Example 30, pivaloyloxymethyl 4-(5-allyl-6-methyl-2-phenylpyrimidin-4-ylamino)benzoate]

pEC50 (Nurr1:RXRα heterodimer): 6.15 | bioavailability ([2]; mouse, in vivo, ip): highly bioavailable
Structure (SMILES): Cc1nc(-c2ccccc2)nc2c1cc(C)n2-c1ccc(C(=O)O)cc1Br [Example 46, 3-bromo-4-(4,6-dimethyl-2-phenyl-7H-pyrrolo[2,3-d]pyrimidin-7-yl)benzoic acid]
cell survival against MPP+ [1]: significantly increased the survival of cells | brain penetration ([2]; mouse, in vivo, ip): capable of crossing the blood brain barrier | c-jun transcriptional activation in the midbrain (c-jun; IP compound 46, qPCR 2 hours after administration): significant c-jun transcriptional activation

Structure (SMILES): C=CCc1c(C)nc(-c2ccccc2)nc1Nc1ccc(C(=O)O)cc1 [XCT0135908, reference compound]
relative activation of Nur77:RXRα vs Nurr1:RXRα heterodimers (Nur77:RXRα heterodimers): preferentially activates Nur77:RXRα heterodimers and not Nurr1:RXRα heterodimers | compound stability in vivo ([2]; mice, 1 and 2 hours after IP, plasma and brain homogenates): low compound stability | brain penetration ([2]; mice, IP administration): minimal brain penetration | Kp ([2]; mouse, brain homogenate / blood plasma, mice, 1 and 2 hours after IP XCT (printed 1 μg/kg), LC-MS/MS): < 0.03 | midbrain TH expression [3]: did not result in any expression alterations | midbrain c-jun expression (c-jun; IP or intracerebroventricular 1 and 10 mg/kg, different time points): did not result in any expression alterations

pEC50 (Nurr1:RXRα heterodimer): 5.30
Structure (SMILES): C=CCc1c(C)nc(-c2ccccc2)nc1Nc1ccc(C(=O)OCCCOc2ccc(C[C@H](N)C(=O)O)cc2)cc1 [Example 32, (S)-2-(4-(3-(4-(5-allyl-6-methyl-2-phenylpyrimidin-4-ylamino)benzoyloxy)propoxy)phenyl)-1-carboxyethanaminium chloride]

pEC50 (Nurr1:RXRα heterodimer): 5.00
Structure (SMILES): C=CCc1c(C)nc(-c2ccccc2)nc1Nc1ccc(C(=O)Oc2ccc(C[C@H](N)C(=O)O)cc2)cc1 [Example 31, (S)-2-(4-(4-(5-allyl-6-methyl-2-phenylpyrimidin-4-ylamino)benzoyloxy)phenyl)-1-carboxyethanaminium chloride]

pEC50 (Nurr1:RXRα heterodimer): 5.60
Structure (SMILES): Cc1nc(-c2ccccc2)nc2c1cc(C)n2-c1ccc(C(=O)O)cc1 [Example 45, 4-(4,6-dimethyl-2-phenyl-7H-pyrrolo[2,3-d]pyrimidin-7-yl)benzoic acid]

Reference: patent publication US10946019B2, “Nurr1:RXR activating compounds for simultaneous treatment of symptoms and pathology of Parkinson's disease” (priority 2015, dated 2021)
